Reference: PMC2759276 (Bioorganic & medicinal chemistry, 2009)
Entries after “also recorded” stand apart in the source; their conditions may differ. Read-outs that look alike come from different tables or passages of the source.

Key:
VIM-2 [1] = target: T1, VIM-2 (Escherichia coli, UniProt Q5U7L7); experiment: VIM-2 CCF2 kinetic assay; format: biochemical; conditions: VIM-2, CCF2 format; SD of 3 replicates
TEM-1 = TEM-1 (Escherichia coli, UniProt P62593); experiment: TEM-1 nitrocefin assay; format: biochemical; conditions: for inhibition at 25 µM: read-out: Max Inhibition @ Tested Concentration, TEM-1 Nitrocefin; for inhibitory activity against TEM-1 (in words): highest concentration tested 25 μM
TEM-1, sequence (P62593 24-286 limits assumed): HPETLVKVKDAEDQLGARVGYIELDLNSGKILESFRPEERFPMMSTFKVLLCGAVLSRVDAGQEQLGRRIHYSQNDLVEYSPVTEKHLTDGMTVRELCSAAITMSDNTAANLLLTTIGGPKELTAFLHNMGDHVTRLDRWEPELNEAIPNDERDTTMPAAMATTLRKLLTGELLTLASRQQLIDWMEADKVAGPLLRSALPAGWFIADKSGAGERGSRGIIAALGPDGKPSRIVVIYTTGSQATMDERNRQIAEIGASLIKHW

VIM-2 [2] = target: T1, VIM-2; format: biochemical
[3] = system: resistant E. coli (BL21/VIM-2); experiment: Imipenem MIC potentiation by a single dose of inhibitor; format: cell-based; conditions: for Imipenem MIC @ 50 μM of compound: BL21+VIM-2; for potentiation of imipenem efficacy (in words): resistant E. coli (BL21/VIM-2)
AmpC = AmpC (Enterobacter cloacae, UniProt P05364); experiment: AmpC nitrocefin assay; format: biochemical, E.cloacae; conditions: for inhibition at 25 µM: read-out: Max Inhibition @ Tested Concentration, AmpC Nitrocefin; for inhibitory activity against AmpC (in words): highest concentration tested 25 μM
AmpC, sequence (P05364 21-381): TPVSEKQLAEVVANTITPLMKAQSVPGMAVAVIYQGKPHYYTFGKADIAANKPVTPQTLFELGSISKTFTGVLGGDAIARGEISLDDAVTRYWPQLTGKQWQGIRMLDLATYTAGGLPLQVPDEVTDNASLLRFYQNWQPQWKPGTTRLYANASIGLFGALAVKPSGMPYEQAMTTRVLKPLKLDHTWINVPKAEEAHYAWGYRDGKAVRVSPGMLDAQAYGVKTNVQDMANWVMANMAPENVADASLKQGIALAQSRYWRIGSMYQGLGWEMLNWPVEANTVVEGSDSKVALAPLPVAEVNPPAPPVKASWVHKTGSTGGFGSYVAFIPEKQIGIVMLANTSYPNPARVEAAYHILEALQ

IMP-1 = IMP-1 (Serratia marcescens, UniProt P52699); experiment: biochemical; format: biochemical; conditions: for inhibition at 56 µM: read-out: Max Inhibition @ Tested Concentration, IMP-1 Nitrocefin
IMP-1, sequence (P52699 19-246 limits assumed): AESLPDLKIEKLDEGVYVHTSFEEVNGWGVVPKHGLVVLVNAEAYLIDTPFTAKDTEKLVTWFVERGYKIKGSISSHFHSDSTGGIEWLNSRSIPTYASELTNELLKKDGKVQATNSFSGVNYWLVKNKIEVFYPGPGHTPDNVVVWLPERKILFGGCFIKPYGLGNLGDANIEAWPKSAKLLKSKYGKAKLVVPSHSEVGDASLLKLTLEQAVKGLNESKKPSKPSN

VIM-2 [4] = target: T1, VIM-2; format: biochemical; conditions: for effect of absence of zinc in the assay buffer on potency: with vs without 50 μM ZnSO4
BL21/VIM2 E. coli = format: cell-based; conditions: checkerboard microdilution
[5] = system: non-resistant (BL21) E. coli; experiment: MIC assay, non-resistant strain; format: cell-based
[6] = system: resistant (BL21/VIM-2) E. coli; format: cell-based
VIM-2 [7] = target: T1, VIM-2; experiment: Rapid dilution experiment
VIM-2 [8] = target: T1, VIM-2; experiment: VIM-2 FRET; format: biochemical; conditions: @ 36 μM

With `O=C(CNC(=O)c1cc2cc(Cl)c(O)cc2oc1=O)N[C@@H]1C(=O)N2C(C(=O)O)=C(CSc3ccc4c(c3)C(=O)OC43c4ccc(O)cc4Oc4cc(O)ccc43)CS[C@H]12` [CCF2] the Km (VIM-2 [1]) was 21 ± 7 µM.
`C#CCCOCc1nn[nH]c1CNS(=O)(=O)c1ccc(I)cc1` [Compound 1, 4-Iodo-N-((4-((but-3-ynyloxy)methyl)-1H-1,2,3-triazol-5-yl)methyl)benzenesulfonamide] was tested, and the IC50 (TEM-1) was greater than 25 µM, the inhibition at 25 µM (TEM-1) was 0% and the mechanism of inhibition (VIM-2 [2]) was “competitive inhibitors”. For the same compound, the “Imipenem MIC @ 50 μM of compound” value [3] was 1.9 µg/mL, the IC50 (AmpC) was greater than 25 µM and the inhibition at 25 µM (AmpC) was 0%. For the same compound, the IC50 (IMP-1) was greater than 56 µM, the “activity in the IMP-1 nitrocefin assay (in words)” value (IMP-1) was “inactive” and the inhibition at 56 µM (IMP-1) was 0%. For the same compound, the “effect of absence of zinc in the assay buffer on potency” value (“effect of absence of zinc” for short) (VIM-2 [4]) was “not significantly affected by the absence of zinc; also recorded: independent of the concentration of zinc”.
With `COCc1nn[nH]c1CNS(=O)(=O)c1ccc(I)cc1` [Compound 2, 4-Iodo-N-((4-(methoxymethyl)-1H-1,2,3-triazol-5-yl)methyl)benzenesulfonamide] the IC50 (TEM-1) was greater than 25 µM, the inhibition at 25 µM (TEM-1) was 0% and the mechanism of inhibition (VIM-2 [2]) was “competitive inhibitors”. For the same compound, the “Imipenem MIC @ 50 μM of compound” value [3] was 1.9 µg/mL, the IC50 (AmpC) was greater than 25 µM and the inhibition at 25 µM (AmpC) was 0%. The IC50 (IMP-1) was greater than 56 µM, the “activity in the IMP-1 nitrocefin assay (in words)” value (IMP-1) was “inactive” and the inhibition at 56 µM (IMP-1) was 0%. The “effect of absence of zinc” value (VIM-2 [4]) was “not significantly affected by the absence of zinc; also recorded: independent of the concentration of zinc”.
In the case of `O=C1c2c(O)ccc(O)c2C(=O)c2c(NCCNCCO)ccc(NCCNCCO)c21` [Mitoxantrone, 1,4-Dihydroxy-5,8-bis([2-([2-hydroxyethyl]amino)ethyl]amino)-9,10-anthracenedione], the IC50 (TEM-1) is reported as greater than 25 µM, the “inhibitory activity against TEM-1 (in words)” value (TEM-1) is reported as “did not exhibit any inhibitory activity” and the inhibition at 25 µM (TEM-1) is reported as 0%. The “Imipenem MIC @ 50 μM of compound” value [3] was 0.2 µg/mL, the “potentiation of imipenem efficacy (in words)” value [3] was “completely reverse the effects of VIM-2 on imipenem potency; also recorded: potentiate imipenem efficacy” and the IC50 (AmpC) was greater than 25 µM. For the same compound, the “inhibitory activity against AmpC (in words)” value (AmpC) was “did not exhibit any inhibitory activity”, the inhibition at 25 µM (AmpC) was 0% and the IC50 (IMP-1) was greater than 56 µM. The “activity in the IMP-1 nitrocefin assay (in words)” value (IMP-1) was “did not exhibit any inhibitory activity”, the “activity in the IMP-1 nitrocefin assay (in words)” value (IMP-1; listed as mitoxantrone) was “inactive at the range of concentrations tested” and the inhibition at 56 µM (IMP-1) was 0%. For the same compound, the “effect of absence of zinc” value (VIM-2 [4]) was “not significantly affected by the absence of zinc”.
With `O=C(O)c1cc[c]([Hg][Cl])cc1` [pCMB, 4-chloromercuribenzoic acid] the “Max Inhibition @ Tested Concentration, TEM-1 Nitrocefin” value (TEM-1; @ 25 μM) was 0%, the “inhibitory activity against TEM-1 (in words)” value (TEM-1) was “no inhibitory activity” and the IC50 (TEM-1; read-out: IC50 TEM-1 Nitrocefin) was greater than 25 µM. The MIC alone (BL21/VIM2 E. coli) was 17.9 µg/mL, the “Compound MIC” value [5] was 17.9 µg/mL and the mechanism of inhibition (VIM-2 [2]) was “slowly reversible or irreversible inhibitor; also recorded: irreversible / slowly reversible”. The “Imipenem MIC @ 50 μM of compound” value [3] was 0.2 µg/mL, the “potentiation of imipenem efficacy (in words)” value [3] was “completely reverse the effects of VIM-2 on imipenem potency; also recorded: potentiate imipenem efficacy” and the “Compound MIC” value [6] was 17.9 µg/mL. The “inhibition of VIM-2” value (VIM-2 [7]; 24 μM, incubated 30 minutes at room temperature) was 90%, the “recovery of VIM-2 activity after dilution” value (VIM-2 [7]; after 15 minutes, 1:100 dilution from 24 μM) was 16.5% and the “Max Inhibition @ Tested Concentration, VIM-2 (CCF2)” value (VIM-2 [8]) was “NA (83% @ 36 μM)”. For the same compound, the “Max Inhibition @ Tested Concentration, AmpC Nitrocefin” value (AmpC; @ 25 μM) was 0%, the “inhibitory activity against AmpC (in words)” value (AmpC) was “no inhibitory activity” and the IC50 (AmpC; read-out: IC50 AmpC Nitrocefin) was greater than 25 µM. The “activity in the IMP-1 nitrocefin assay (in words)” value (IMP-1) was “modest potency; also recorded: demonstrated potency”, the “Max Inhibition @ Tested Concentration, IMP-1 Nitrocefin” value (IMP-1; @ 140 μM, 15 minutes of preincubation) was “NA (82% @ 140 μM)” and the “Max Inhibition @ Tested Concentration, VIM-2 (Nitrocefin)” value (VIM-2 [4]; @ 15 μM) was “NA ^(e) (80% @ 15 μM)”. The “effect of absence of zinc” value (VIM-2 [4]) was “not significantly affected by the absence of zinc”.
